One block for each compound: values may come before it.
Columns and labels:
MCF-10A = experiment: Antiproliferative activity against human MCF-10A cells assessed as cell growth inhibition measured after 72 hrs by MTT assay; format: functional, cell-based
[1] = Antiproliferative activity against human DLBCL cells assessed as reduction in cell viability measured after 72 hrs by MTT assay; format: functional, cell-based
[2] = target: T1, Histone-lysine N-methyltransferase EZH2 (Homo sapiens, UniProt Q15910)
T1 sequence (Q15910 whole entry): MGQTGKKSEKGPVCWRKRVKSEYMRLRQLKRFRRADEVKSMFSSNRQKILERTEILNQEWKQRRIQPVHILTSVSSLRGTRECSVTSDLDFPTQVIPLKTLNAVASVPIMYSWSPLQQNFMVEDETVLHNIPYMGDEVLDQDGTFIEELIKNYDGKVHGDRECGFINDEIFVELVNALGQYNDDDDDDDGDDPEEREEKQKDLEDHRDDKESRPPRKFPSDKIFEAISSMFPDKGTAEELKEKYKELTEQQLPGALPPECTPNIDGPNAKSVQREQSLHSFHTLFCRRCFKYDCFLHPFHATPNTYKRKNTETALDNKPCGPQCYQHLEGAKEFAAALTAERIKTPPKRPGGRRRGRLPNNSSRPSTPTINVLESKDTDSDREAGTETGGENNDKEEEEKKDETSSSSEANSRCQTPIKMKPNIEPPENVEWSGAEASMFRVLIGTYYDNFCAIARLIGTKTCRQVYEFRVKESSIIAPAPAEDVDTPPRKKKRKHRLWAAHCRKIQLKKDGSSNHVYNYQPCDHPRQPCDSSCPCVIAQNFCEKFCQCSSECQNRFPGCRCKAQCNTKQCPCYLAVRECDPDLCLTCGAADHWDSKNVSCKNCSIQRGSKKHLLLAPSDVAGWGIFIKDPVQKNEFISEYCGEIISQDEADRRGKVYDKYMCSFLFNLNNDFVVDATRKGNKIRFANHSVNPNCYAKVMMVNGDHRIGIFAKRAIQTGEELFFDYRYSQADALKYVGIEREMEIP
Description: Inhibition of human EZH2 using core histone as substrate incubated for 1 hr by fluorescence based assay

[3] = target: T1, Histone-lysine N-methyltransferase EZH2; remark: listed apart in the source
Description: Inhibition of human EZH2 in human MCF-10A cells assessed as reduction in H3K27me3 levels incubated for 72 hrs by Western blot analysis

[4] = target: Histone-lysine N-methyltransferase EZH2 (Homo sapiens, UniProt Q15910, Y641F); experiment: Inhibition of N-terminal FLAG-tagged recombinant full-length human EZH2 Y641F mutant in PRC2 complex expressed in baculovirus infected Sf9 cells using H3K27me0 biotin/SAM as substrate preincubated for 10 mins followed by substrate addition measured after 4 hrs by HTRF assay
Chain of Histone-lysine N-methyltransferase EZH2 (Homo sapiens, UniProt Q15910, Y641F) (Q15910 whole entry Y641F): as the sequence (Q15910 whole entry) above, with Y641F counted along it

[5] = target: T1, Histone-lysine N-methyltransferase EZH2; experiment: Inhibition of EZH2 methyltransferase activity in human PA-1 cells assessed as reduction in H3K27me3 level measured after 4 days by Western blot analysis; format: cell-based
ASPC1 = experiment: Antiproliferative activity against human ASPC1 cells harboring KRAS G12D mutant assessed as reduction in cell growth measured after 72 hrs by MTT assay; format: functional, cell-based; conditions: ASPC1, 72 h
KARPAS-422 [6] = experiment: Growth inhibition of human KARPAS-422 cells assessed as reduction in cell viability measured after 72 hrs by MTT assay; format: functional
HCT-116 = experiment: Cytotoxicity against human HCT-116 cells assessed as reduction in cell viability measured after 72 hrs by MTT assay; format: functional, cell-based; conditions: HCT-116, 72 h
G-401 = experiment: Growth inhibition of human G-401 cells assessed as reduction in cell viability measured after 72 hrs by MTT assay; format: functional
NCI-N87 = experiment: Growth inhibition of human NCI-N87 cells assessed as reduction in cell viability measured after 72 hrs by MTT assay; format: functional
KARPAS-422 [7] = experiment: Antitumor activity against human KARPAS-422 cells xenografted in nude mouse assessed as reduction in tumor growth at 100 mg/kg, po administered once daily for 14 consecutive days relative to control; format: functional; conditions: read-out: TGI
[8] = target: T1, Histone-lysine N-methyltransferase EZH2; experiment: Inhibition of EZH2 (unknown origin) using plate-coated histone as substrate at 5 uM incubated for 90 mins in presence of 5 uM SAM by AlphaScreen assay
A549 = experiment: Antiproliferative activity against human A549 cells assessed as reduction in cell viability measured after 48 hrs by MTT assay; format: functional, cell-based; conditions: A549, 48 h
[9] = target: T1, Histone-lysine N-methyltransferase EZH2; experiment: Inhibition of wildtype EZH2 (unknown origin)
[10] = target: T1, Histone-lysine N-methyltransferase EZH2; experiment: Inhibition of EZH2 (unknown origin) using SAM as substrate preincubated for 10 mins followed by substrate addition and measured after 4 hrs by HTRF assay
RS4-11 = experiment: Growth inhibition of human RS4-11 cells assessed as reduction in cell viability measured after 72 hrs by MTT assay; format: functional
MV4-11 = experiment: Growth inhibition of human MV4-11 cells assessed as reduction in cell viability measured after 72 hrs by MTT assay; format: functional

GI50 (KARPAS-422 [6]): 0.004 µM
Structure (SMILES): Cc1cc(C)c(CNC(=O)c2cc(Br)c3c(c2C)O[C@@](C)([C@H]2CC[C@H](N(C)C)CC2)O3)c(=O)[nH]1
IC50 (HCT-116): 0.00062 µM
GI50 (G-401): 0.0177 µM
GI50 (NCI-N87): 0.536 µM

GI50 (KARPAS-422 [6]): 0.21 µM
Structure (SMILES): CCN1CCN(c2ccc(-c3cc(C(=O)NCc4c(C)cc(C)[nH]c4=O)c(C)c4c3O[C@](C)(CN3CCOCC3)O4)cn2)CC1
IC50 (HCT-116): 0.00055 µM
inhibition in vivo at 100 mg/kg (KARPAS-422 [7]): 82%

IC50 (A549): 270 µM
Structure (SMILES): Cc1cc(C)c(CNC(=O)c2c(C)cn(Cc3ccc(C(F)(F)F)cc3)c2C)c(=O)[nH]1

IC50 [9]: 0.0064 µM
Structure (SMILES): CCN(c1cc(C(=O)NCc2c(C)cc(C)[nH]c2=O)c2cc(CN3CCCCC3)oc2c1)C1CCOCC1

GI50 (KARPAS-422 [6]): 0.0048 µM
GI50 (RS4-11): 0.0783 µM
GI50 (MV4-11): 0.0048 µM
Structure (SMILES): Cc1cc(C)c(CNC(=O)c2cc(Cl)c3c(c2C)O[C@@](C)([C@H]2CC[C@H](N(C)C)CC2)O3)c(=O)[nH]1 [VALEMETOSTAT]
IC50 (HCT-116): 0.024 µM

The remaining lines, values behind:

Structure (SMILES): COc1cc2nc(N3CCN(C)CC3)nc(NC3CCN(Cc4ccccc4)CC3)c2cc1OC
IC50 (MCF-10A): > 15 µM

Structure (SMILES): CCCc1cc(C)[nH]c(=O)c1CNC(=O)c1cc(-c2ccc(N3CCN(C(C)C)CC3)nc2)cc2c1cnn2C(C)C
EC50 [1]: 0.633 µM
IC50 [2]: < 0.01 µM
IC50 [3]: < 0.01 µM

Structure (SMILES): CCCc1cc(C)[nH]c(=O)c1CNC(=O)c1cc(-c2ccc(N3CCN(C)CC3)nc2)nc2c1cnn2C(C)C
IC50 [4]: 0.08 µM

Structure (SMILES): CCN(c1cc(-c2ccc(CN3CCN(CCCCCCCOc4cccc5c4C(=O)N(C4CCC(=O)NC4=O)C5=O)CC3)cc2)cc(C(=O)NCc2c(C)cc(C)[nH]c2=O)c1C)C1CCOCC1 (configuration not stated)
IC50 [5]: < 0.005 µM

Structure (SMILES): CCN(c1cc(-c2ccc(OCCCCCNC(=O)C[C@@H]3N=C(c4ccc(Cl)cc4)c4c(sc(C)c4C)-n4c(C)nnc43)cc2)cc(C(=O)NCc2c(C)cc(C)[nH]c2=O)c1C)C1CCOCC1
IC50 (ASPC1): 0.69 µM

Structure (SMILES): CCN(c1cc(-c2ccc(CN3CCN(C(=O)CCCCCCCC(=O)N[C@H](C(=O)N4C[C@H](O)C[C@H]4C(=O)NCc4ccc(-c5scnc5C)cc4)C(C)(C)C)CC3)cc2)cc(C(=O)NCc2c(C)cc(C)[nH]c2=O)c1C)C1CCOCC1
IC50 [8]: 8.6 µM

Structure (SMILES): Cc1cc(C)c(CNC(=O)c2cc(-c3ccc(N4CCN(CCNC(=O)C56CC7CC(CC(C7)C5)C6)CC4)nc3)cc3c2cnn3C(C)C)c(=O)[nH]1
IC50 [10]: 0.12 µM
